Patent publication US9012446B2, “Amino-oxazines and amino-dihydrothiazine compounds as beta-secretase modulators and methods of use” (Amgen Inc., priority 2010, dated 2015)
Like-named read-outs stand apart in the source and are kept apart here.

What was measured:
[1] = molecular target: BACE (Homo sapiens, UniProt P56817); test: In vitro enzymatic BACE FRET assay; format: biochemical; conditions: average IC50, enzyme assay; read-out: BACE 1 FRET assay
Procedure: In Vitro Enzymatic BACE FRET (Fluorescence Resonance Energy Transfer) Assay (Enzyme Assay Data in the Example Table I) The assay buffer used in this screen is 0.05 M acetate, pH 4.2, 10% DMSO final, 100 uM genapol (which is a nonionic detergent, below its Critical Micelle Concentration). The beta secretase enzyme (0.2 nM) is pre-incubated for one hour with inhibitors, typically in about 1 uL of DMSO according to a serial dilution, are added thereto. This assay is effectively started by the addition of FRET substrate (50 nM) and the combination is incubated for one hour. The FRET assay is terminated with by addition of Tris buffer, which raises the pH to neutrality, and the fluorescence is determined. The FRET substrate is a peptide with commercially available fluorophore and quencher, on opposite sides of the BACE cleavage site. Proteolytic cleavage of the FRET substrate releases quenching of fluorescence (excitation 488 nm and emission […]).

[2] = tested on: Aβ40; test: In vitro BACE cell-based assay (Aβ40 sandwich ELISA, cells stably expressing APP)
Procedure: In Vitro BACE Cell-Based Assay […] Cells stably expressing Amyloid Precursor Protein (APP) were plated at a density of 40K cells/well in 96 well plates (Costar). The cells were cultivated for 24 hours at 37° C. and 5% CO2 in DMEM supplemented with 10% FBS. The test compounds were then added to cells in 10-point dose response concentrations with the starting concentration being either 100 μM or 10 μM. The compounds were diluted from stock solutions in DMSO and the final DMSO concentration of the test compounds on cells was 0.1%. […] The IC50 of the compound was calculated from the percent of control or percent inhibition of Aβ40 as a function of the concentration of the test compound. The sandwich ELISA to detect Aβ40 was performed in 96 well microtiter plates, which were pre-treated with goat anti-rabbit IgG (Pierce). […] The optimal concentration for the pAb40 antibody was 3 μg/ml in Superblock/TBS (Pierce) that was supplemented with 0.05% Tween 20 (Sigma). […] Cellular supernatants were incubated with the capture antibody for 3 h at 4° C., followed by 3 wash steps in TBS-tween (0.05%). The detecting antibody incubation was for 2 h at 4° C., again followed by the wash steps as described previously. The final readout of the ELISA is Time-Resolved Fluorescence (counts per minute) using Delfia reagents Streptavidin-Europium and Enhancement solutions (Perkin Elmer) and the Victor 2 multilabel counter (Perkin Elmer).

[3] = Homo sapiens, HEK293, average IC50, read-out: HEK cell assay
[4] = Homo sapiens, HEK293, average IC50, cell assay, HEK cells
[5] = average IC50, read-out: HEK cell assay

Chain of BACE (P56817 46-501, species assumed): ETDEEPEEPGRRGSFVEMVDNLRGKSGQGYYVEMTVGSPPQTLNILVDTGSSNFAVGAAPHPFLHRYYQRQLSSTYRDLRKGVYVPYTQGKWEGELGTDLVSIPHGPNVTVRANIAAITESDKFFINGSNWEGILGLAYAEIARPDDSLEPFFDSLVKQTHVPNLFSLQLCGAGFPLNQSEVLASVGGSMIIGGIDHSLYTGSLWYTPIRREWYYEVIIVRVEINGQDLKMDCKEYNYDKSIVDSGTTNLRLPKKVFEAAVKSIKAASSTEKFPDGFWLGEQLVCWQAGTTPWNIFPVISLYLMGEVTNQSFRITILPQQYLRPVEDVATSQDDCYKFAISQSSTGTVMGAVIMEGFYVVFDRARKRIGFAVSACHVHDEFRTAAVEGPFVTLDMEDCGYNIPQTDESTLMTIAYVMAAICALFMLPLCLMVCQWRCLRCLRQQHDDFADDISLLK

IC50 [1] [nM] | IC50 [2, 3] [nM] | IC50 [2, 4] [nM] | IC50 [2, 5] [nM] | SMILES
30.9 | 106 | – | – | COc1cc2c(cn1)Oc1ccc(-c3ccc(F)c(F)c3)cc1[C@@]21COCC(N)=N1 [Example 50, (S)-7-(3,4-difluorophenyl)-3-methoxy-2′,6′-dihydrospiro[chromeno[2,3-c]pyridine-5,3′-[1,4]oxazin]-5′-amine]
0.3 | – | 0.8 | – | NC1=N[C@@]2(COC1)c1cc(-c3cncnc3)ccc1Oc1cnc(-c3ccc(F)c(F)c3)cc12 [compound 79]
0.4 | – | 0.6 | – | NC1=N[C@@]2(COC1)c1cc(-c3cnccc3F)ccc1Oc1cnc(-c3ccnc(F)c3)cc12 [compound 118]
140 | – | 628 | – | NC1=N[C@]2(COC1)c1cc(-c3cccnc3F)ccc1Oc1c(F)cc(-c3ccnc(F)c3)cc12 [36B]
0.5 | – | 1.5 | – | NC1=N[C@@]2(COC1)c1cc(-c3cncc(F)c3)ccc1Oc1cnc(-c3cncc(F)c3)cc12 [compound 112]
2530 | 83.1 | – | – | NC1=N[C@]2(CCS1)c1cc(-c3cccnc3F)ccc1Oc1c(F)cc(C3=CCOCC3)cc12 [compound 196]
0.6 | – | 1.9 | – | NC1=N[C@@]2(COC1)c1cc(-c3cc(Cl)ccc3F)ccc1Oc1ncc(N3CC[C@@H](F)C3)cc12 [compound 92]
0.4 | 0.3 | – | – | CC(C)(C)C#Cc1cnc2c(c1)[C@]1(COCC(N)=N1)c1cc(-c3cccnc3)ccc1O2 [Example 52, (S)-3-(3,3-dimethylbut-1-ynyl)-7-(pyridin-3-yl)-2′,6′-dihydrospiro[chromeno[2,3-b]pyridine-5,3′-[1,4]oxazin]-5′-amine]
0.5 | – | 0.2 | – | NC1=N[C@@]2(COC1)c1cc(-c3cncc(F)c3)ccc1Oc1cnc(C3=CCCOC3)cc12 [compound 121]
81.8 | – | 118 | – | NC1=NC2(CCS1)c1cc(-c3cccnc3)ccc1Oc1ccc(-c3cccnc3)cc12 [compound 99]
2.6 | 11.1 | – | – | NC1=N[C@@]2(CCS1)c1cc(-c3cccnc3F)ccc1Oc1cnc(-c3ccnc(F)c3)cc12 [compound 188]
158 | – | 420 | – | COc1cc(F)c2c(c1)[C@]1(COCC(N)=N1)c1cc(N3CCC(F)(F)CC3)ccc1O2 [Example 45, (S)-7′-(4,4-difluoropiperidin-1-yl)-4′-fluoro-2′-methoxy-2,6-dihydrospiro[[1,4]oxazine-3,9′-xanthen]-5-amine]
958 | 3020 | – | – | NC1=N[C@]2(CCO1)c1cc(-c3cccnc3F)ccc1Oc1c(F)cc(N3CCC(F)(F)CC3)cc12 [compound 162]
863 | 2430 | – | – | CC(C)(F)COc1cc(F)c2c(c1)[C@@]1(CCSC(N)=N1)c1cc(-c3cccnc3F)ccc1O2 [compound 202]
0.3 | 0.5 | – | – | NC1=N[C@@]2(COC1)c1cc(-c3cccnc3F)ccc1Oc1c2cc(-c2cccnc2)nc1F [compound 243]
6.2 | – | 4.2 | – | NC1=N[C@@]2(CCO1)c1cc(-c3cncc(F)c3)ccc1Oc1cnc(-c3cncc(F)c3)cc12 [compound 142]
7.3 | – | 3.4 | – | NC1=NC2(CCO1)c1cc(-c3cccnc3)ccc1Oc1cnc(C3=CCOCC3)cc12 (centres unmarked) [compound 151]
6670 | 3560 | – | – | NC1=N[C@]2(CCO1)c1cc(-c3cccnc3F)ccc1Oc1ncc(-c3ccnc(F)c3)cc12 [compound 267]
5.4 | 25.1 | – | – | CC(C)(C)C#Cc1ccc2c(c1)[C@@]1(COCC(N)=N1)c1cc(C#CC(C)(C)C)cnc1O2 [Example 53, (S)-3,7-bis(3,3-dimethylbut-1-ynyl)-2′,6′-dihydrospiro[chromeno[2,3-b]pyridine-5,3′-[1,4]oxazin]-5′-amine]
0.5 | 0.9 | – | – | CC(C)COc1cc2c(cn1)Oc1ccc(-c3cncc(F)c3)cc1[C@@]21COCC(N)=N1 [compound 254]
2.2 | – | 3.3 | – | COc1cc2c(cn1)Oc1ccc(-c3cccnc3F)cc1[C@@]21COCC(N)=N1 [compound 123]
922 | 1970 | – | – | NC1=N[C@]2(CCS1)c1cc(-c3cccnc3F)ccc1Oc1cnc(C3=CCCOC3)cc12 [compound 195]
87.3 | – | – | 374 | COc1cc(F)c2c(c1)[C@@]1(CCSC(N)=N1)c1cc(-c3cccnc3F)ccc1O2 (racemic) [compound 191]

IC50 [1] [nM] | IC50 [2, 3] [nM] | IC50 [2, 4] [nM] | IC50 [2, 5] [nM] | SMILES
473 | 937 | – | – | NC1=N[C@]2(CCS1)c1cc(-c3cccnc3F)ccc1Oc1cnc(C3=CCOCC3)cc12 [compound 194]
12.8 | – | 6.9 | – | CC(C)(C)C#Cc1cc2c(cn1)Oc1ccc(-c3cncc(F)c3)cc1[C@@]21CCOC(N)=N1 [compound 139]
0.3 | – | 1.4 | – | CC(C)(C#N)COc1cc2c(cn1)Oc1ccc(-c3cc(Cl)ccc3F)cc1[C@@]21COCC(N)=N1 [compound 127]
1 | 1.5 | – | – | CCOc1cc2c(cn1)Oc1ccc(-c3cncc(Cl)c3)cc1[C@@]21COCC(N)=N1 [compound 253]
1740 | – | 2640 | – | NC1=N[C@]2(CCO1)c1cc(-c3cccnc3F)ccc1Oc1c2cc(-c2ccnc(F)c2)nc1F [compound 106]
0.3 | – | 1.6 | – | NC1=N[C@@]2(COC1)c1cc(-c3cnccc3F)ccc1Oc1cnc(-c3ccc(F)c(F)c3)cc12 [compound 117]
0.6 | 1 | – | – | CC(C)C#Cc1cnc2c(c1)[C@]1(COCC(N)=N1)c1cc(-c3cccnc3F)ccc1O2 [compound 213]
563 | 634 | – | – | CC1(COc2cc(F)c3c(c2)[C@@]2(CCSC(N)=N2)c2cc(-c4cccnc4F)ccc2O3)COC1 [compound 198]
152 | 206 | – | – | NC1=N[C@]2(CCO1)c1cc(-c3cccnc3)ccc1Oc1c2cc(-c2ccnc(F)c2)nc1F [compound 240]
0.5 | – | 1.5 | – | CC#Cc1cncc(-c2ccc3c(c2)[C@@]2(COCC(N)=N2)c2cc(C4=CCCOC4)cc(F)c2O3)c1 [Example 66, (S)-2′-(5,6-dihydro-2H-pyran-3-yl)-4′-fluoro-7′-(5-(prop-1-ynyl)pyridin-3-yl)-2,6-dihydrospiro[[1,4]oxazine-3,9′-xanthen]-5-amine]
541 | 982 | – | – | N#Cc1cccc(-c2ccc3c(c2)[C@]2(CCOC(N)=N2)c2cc(C4=CCCOC4)nc(F)c2O3)c1 [compound 224]
462 | 434 | – | – | NC1=N[C@]2(CCS1)c1cc(-c3cccnc3F)ccc1Oc1c(F)cc(C3=CCCOC3)cc12 [compound 190]
30.7 | 138 | – | – | NC1=N[C@@]2(CO[C@H]1C1CCCCC1)c1cc(-c3cccnc3F)ccc1Oc1cnc(Cl)cc12 (racemic) [Example 56A, (3′S,6′S)-3-chloro-6′-cyclohexyl-7-(2-fluoropyridin-3-yl)-2′,6′-dihydrospiro[chromeno[2,3-c]pyridine-5,3′-[1,4]oxazin]-5′-amine]
7 | – | – | 15.4 | NC1=N[C@]2(CCO1)c1cc(-c3cccnc3F)ccc1Oc1c(F)cc(-c3ccnc(F)c3)cc12 [compound 183]
1130 | – | 1140 | – | COc1ccc2c(c1)C1(CCSC(N)=N1)c1cc(-c3cncnc3)ccc1O2 (centres unmarked) [compound 137]
3350 | 5610 | – | – | NC1=N[C@]2(CCS1)c1cc(-c3cccnc3F)ccc1Oc1cnc(Cl)cc12 [compound 192]
49.8 | 119 | – | – | COc1nc(-c2cccnc2)cc2c1Oc1ccc(-c3cccnc3F)cc1C21CCOC(N)=N1 (centres unmarked) [compound 221]
90.8 | – | – | 205 | C[C@@H]1OC[C@@]2(N=C1N)c1cc(-c3cccnc3F)ccc1Oc1cnc(Cl)cc12 [compound 210]
13.2 | – | 35.4 | – | NC1=N[C@@]2(CCO1)c1cc(-c3cccnc3F)ccc1Oc1cnc(C3CCOCC3)cc12 [compound 144]
0.5 | 1 | – | – | CC(C)COc1cc2c(cn1)Oc1ccc(-c3cccnc3F)cc1[C@@]21COCC(N)=N1 [compound 255]
90.8 | 392 | – | – | NC1=N[C@@]2(CCS1)c1cc(-c3cccnc3F)ccc1Oc1cnc(Cl)cc12 [compound 199]
1.3 | 2.6 | – | – | NC1=N[C@@]2(COC1)c1cc(-c3cc(F)ccc3F)ccc1Oc1ncc(C3=CCOCC3)cc12 [compound 218]
3.7 | 3.2 | – | – | NC1=N[C@@]2(COC1)c1cc(-c3cc(F)ccc3F)ccc1Oc1ncc(C3CCOCC3)cc12 [compound 215]
